Test results reported in patent US20200289144A1, “DEVICE, METHOD AND FORMULATION FOR CHEMICALLY ASSISTED DISSECTION” (priority 2016, published 2020).

How the values were obtained:
[1] = Mesna purity before and after sterilization using X-rays and gamma irradiation; format: physicochemical
Excerpt: Mesna purity has been evaluated prior and after sterilization using X-rays and gamma irradiation.

[2] = tested on: human MRC-5 fibroblasts; assay: Qualitative evaluation of cytotoxicity by microscopic examination; details: mean ± SD of scores
Method: In vitro cytotoxicity of Mesna in human MRC-5 fibroblasts was evaluated. Two experiments were performed. The first one was performed with two doses of Mesna (5% and 10%) and NaCl (7.06 and 3.53%) and the second one was performed with three doses of Mesna (5, 10 and 20%) and the three corresponding doses of NaCl (7.06, 3.53 and 1.76%). All samples were assayed in triplicate. Evaluation of cytotoxicity was evaluated after the following times: T15 min, T30 min, T1h, T2h, T4h, T8h and T24h.
Cells were thawed according to the standard operating procedure No. TEC-005 and subcultured according to the standard operating procedure No. TEC-001. The cell line was cultured in 75 cm^2-flasks in appropriated culture medium.
A score was assigned based on observations.

[3] = tested on: human MRC-5 fibroblasts; assay: Quantitative evaluation of cytotoxicity, viability assay using MU reagent; format: cell-based; details: for cytotoxicity (percentage of viability below 70% compared to culture medium): result in words
Method: Two experiments were performed. […] All samples were assayed in triplicate.
The cytotoxicity is defined by a viability of a test substance below 70% in compartion to culture medium.

| Mesna purity ([1]; After X-ray irradiation) | Mesna purity ([1]; After gamma irradiation) | Mesna purity ([1]; Prior irradiation) | SMILES | cytotoxicity score (microscopic examination) ([2]; 15 min exposure) | cytotoxicity score (microscopic examination) ([2]; 30 min exposure) | cytotoxicity score (microscopic examination) ([2]; 1 h exposure) | cytotoxicity score (microscopic examination) ([2]; 2 h exposure) | cytotoxicity score (microscopic examination) ([2]; 4 h exposure) | cytotoxicity score (microscopic examination) ([2]; 8 h exposure) | cytotoxicity score (microscopic examination) ([2]; 24 h exposure) | percentage of cell viability compared to culture medium (100% of viability) ([3]; 15 min (0.25 h) exposure) | percentage of cell viability compared to culture medium (100% of viability) ([3]; 30 min (0.5 h) exposure) | percentage of cell viability compared to culture medium (100% of viability) ([3]; 1 h exposure) | percentage of cell viability compared to culture medium (100% of viability) ([3]; 2 h exposure) | percentage of cell viability compared to culture medium (100% of viability) ([3]; 4 h exposure) | percentage of cell viability compared to culture medium (100% of viability) ([3]; 8 h exposure) | percentage of cell viability compared to culture medium (100% of viability) ([3]; 24 h exposure) | cytotoxicity (percentage of viability below 70% compared to culture medium) [3] |
| --- | --- | --- | --- | --- | --- | --- | --- | --- | --- | --- | --- | --- | --- | --- | --- | --- | --- | --- |
| 89.0 | 88.9 | 89.6 | O=S(=O)([O-])CCS.[Na+] [Mesna powder, Sodium 2-mercaptoethanesulfonate] |  |  |  |  |  |  |  |  |  |  |  |  |  |  |  |
|  |  |  | [Cl-].[Na+] [NaCl 3.53%, NaCl] | 0.0 ± 0.0 | 0.0 ± 0.0 | 2 ± 1.4 | 3.0 ± 0.0 | 3.0 ± 0.0 | 3.0 ± 0.0 | 4 ± 0 | 82.7% | 55.4% | 16.3% | 12.7% | 10.5% | 14.4% | 7.2% |  |
| 89.3 | 89.1 | 89.4 | O=S(=O)([O-])CCS.[Na+] [Pure lyophilized Mesna, Sodium 2-mercaptoethanesulfonate] |  |  |  |  |  |  |  |  |  |  |  |  |  |  |  |
|  |  |  | O=S(=O)([O-])CCS.[Na+] [Mesna 10%, Sodium 2-mercaptoethanesulfonate] | 0.0 ± 0.0 | 0.0 ± 0.0 | 1.0 ± 0.0 | 3.0 ± 0.0 | 3.0 ± 0.0 | 3.0 ± 0.0 | 4 ± 0 | 62.3% | 54.8% | 20.6% | 4.1% | 3.2% | 3.3% | 1.1% |  |
|  |  |  | O=S(=O)([O-])CCS.[Na+] [Mesna 5%, Sodium 2-mercaptoethanesulfonate] | 0.0 ± 0.0 | 1.5 ± 0.7 | 1.5 ± 0.7 | 3.0 ± 0.0 | 3.0 ± 0.0 | 3.0 ± 0.0 | 4 ± 0 | 66% | 47.6% | 50.4% | 39.7% | 12% | 3.4% | 1.4% |  |
|  |  |  | Oc1ccccc1 [Phenol 0.5%, Phenol] | 3.0 ± 0.0 | 3.0 ± 0.0 | 3.0 ± 0.0 | 3.0 ± 0.0 | 3.0 ± 0.0 | 3.0 ± 0.0 | 4.0 ± 0.0 | 10.9% | 13.2% | 11.3% | 13.6% | 10.4% | 14.2% | 8.5% | observed at all time points |
|  |  |  | [Cl-].[Na+] [NaCl 7.06%, NaCl] | 0.0 ± 0.0 | 0.5 ± 0.7 | 2.5 ± 0.7 | 3.0 ± 0.0 | 3.0 ± 0.0 | 3.0 ± 0.0 | 4 ± 0 | 45.2% | 25.3% | 12.7% | 12.3% | 10.8% | 14.6% | 7.3% |  |
|  |  |  | [Cl-].[Na+] [NaCl 1.76%, NaCl] | 0.0 | 0.0 | 1.0 | 2.0 | 3.0 | 3.0 | 4.0 | 88.8% | 102.6% | 95% | 75.5% | 44% | 23.1% | 8% | not cytotoxic after 2 hours |
|  |  |  | O=S(=O)([O-])CCS.[Na+] [Mesna 20%, Sodium 2-mercaptoethanesulfonate] | 0.0 | 1.0 | 2.0 | 3.0 | 3.0 | 3.0 | 4.0 | −10.2% | −1.2% | 47.2% | 11.8% | 4.6% | 12.1% | 18.3% |  |
